Format in all cases: in vivo, Arabidopsis thaliana
For experiment [1], the system named is Arabidopsis seedlings. As to the kind of experiment: Somatic embryogenesis from germinated Arabidopsis seeds in liquid medium with 1 μM 2,4-D (containers). An excerpt: The chemical screen was based on a modified version of an Arabidopsis somatic embryogenesis protocol that uses germinated seeds as explants (see Kobayashi et al., 2010 Kobayashi T, Nagayama Y, Higashi K and Kobayashi M. (2010). Establishment of a tissue culture system for somatic embryogenesis from germinating embryos of Arabidopsis thaliana Plant Biotech. 27: 359-364). In the original protocol, seeds were germinated on solid medium for one day, then the embryos were removed from the seed coat and transferred to solid media containing 4.5 μM 2,4-D to stimulate somatic embryo development. In this example, the protocol is simplified by germinating and culturing the seeds continuously in liquid medium containing 1 μM 2,4-D. Under optimized culture conditions (circa 30 seeds in 30 ml medium in 100 ml containers) approximately 18% of Col0 seeds form somatic embryos.
Approximately 10 surface-sterilized Columbia (Col-0) seeds were added to each well. The seeds were stratified at 4° C. in the dark for two days and then grown in on a rotary shaker (100 rpm/min) on a 16 h/8 h day/night cycle at 25° C. The number of seedlings that formed somatic embryos was counted two weeks later. Candidate compounds identified in the first screen were reordered (Chembridge or Maybridge), and re-tested in a second screen under the same conditions as the primary screen, but with a larger sample number (one 96-well microtitre plate/compound). Positive compounds were analysed using ChemMine (http//bioweb.ucr.edu/ChemMineV2/), ChemSpider (http//www.chemsider.com/) and the ZINC database (http://zinc.docking.org) for analogues with a known biological function.
All subsequent experiments were performed under the conditions described above, but using 100 ml containers (Greiner) containing 30 ml of medium media using approximately 30 seeds/container. All hormones were ordered from Duchefa and Dicamba from Sigma-Aldrich.

Experiment [2] deals with Arabidopsis seedlings. As to the kind of experiment: Time course of somatic embryo development, morphology and ENOD4L::GFP / LEC1::LEC1:GFP embryo markers. The procedure: The effect of the compounds on seedlings, without 2,4-D, was tested by germinating seedlings on MS10 solidified with 1% agar, and supplemented with 25 μM compound or DMSO. The ENOD4L promoter comprises a 1035 bp promoter from Brassica napus (AB098076.1), which was cloned in front of green fluorescent protein (GFP). A 3110 bp DNA fragment comprising 1292 bp upstream of the LEC1 translational start site and the entire LEC1 protein coding region was cloned in front of green fluorescent protein (GFP). These vectors were transformed to Arabidopsis ecotype Columbia (Col-0).
Control and C#3-treated cultures were examined at different time points in their development to determine the effect of C#3 on the course of somatic embryo development. Differences between the control and C#3-treated cultures were visible at about four days of culture. The epidermal and cortex cells of the root elongation zone and hypocotyl in the control seedlings increased in size, but not in the C#3-treated seedlings. On the sixth day of culture the differences between the two cultures was more pronounced. […] Callus was present on the tips of the cotyledons in circa 10% of the control seedlings, and up to 70% of the C#3 treated seedlings. This callus comprised loose, large cells on the outside, and smaller, denser cells on the on inside.
The timing and location of somatic embryo formation in control and compound-treated cultures was examined in more detail using two early embryo expressed marker genes, ENOD4-like (ENOD4L::GFP), and LEAFY COTYLEDON1 (LEC1::LEC1:GFP). Expression of ENOD4L::GFP and LEC1:GFP in zygotic embryos was observed from the zygote- and two-celled embryo proper stage onward, respectively. […] The GFP-positive sectors increased in size over the next few days, and on the sixth day of culture, GFP-positive globular embryos could be distinguished. The only difference between the C#3-treated and control cultures with respect to embryo marker expression was the number of seedlings displaying GFP fluorescence, which was higher in the C#3-treated cultures.

Experiment [3] deals with germinating seeds. Description: Developmental competence: C#3 added at different time points after start of culture. The procedure: The competence of an explant for in vitro regeneration is determined for a large part by its developmental state. The developmental competence of germinating seedlings to respond to C#3 was examined by adding C#3 at different time points after the start of culture. Seeds were stratified at 4° C. in media containing 1 μM 2,4-D. 25 μM C#3 or the equivalent volume of DMSO (control) was added to the media at different time points after the cultures were transferred to 25° C. The number of seedlings with somatic embryos was determined after two weeks of culture.

Experiment [4] concerns Arabidopsis seedlings. Description: Somatic embryo formation at 0 to 2 μM 2,4-D with or without C#3. An excerpt:
2,4-D is widely used to induce somatic embryogenesis from plant explant. In Arabidopsis immature zygotic embryos occasionally form somatic embryos when grown in basal medium, while germinating embryos or other vegetative tissues are unable to form embryos. […] Compound #3 therefore potentiates the effect of auxin 2,4-D. As shown in the micrograph in FIG. 7B, at the lowest effective concentration of C#3, areas of dense, light green embryogenic tissue (arrows) were formed, rather than histodifferentiated, bipolar somatic embryos.

Experiment [5] relates to Arabidopsis seedlings. Description: NAA induced somatic embryogenesis with or without C#3. The procedure:
The ability of C#3 to enhance embryogenesis in the presence of other auxins was tested; namely the synthetic auxin naphthalene-1-acetic acid (NAA). […] C#3 therefore enhances the developmental responses that are activated by auxin treatment. Compound C#3 is therefore able to potentiate the effect of other auxins.

Setting [6] is: 25 μM compound, 1 μM 2,4-D, FIG. 1.

This note sets out measurements from patent US20150291517A1, “BENZENESULFONAMIDE COMPOUNDS FOR SOMATIC EMBRYOGENESIS IN PLANTS” (priority 2012, published 2015).

SMILES strings stand for the structures.

Consider `O=C(O)COc1ccc(Cl)cc1Cl` [2,4-D, 2,4 dichlorophenoxyacetic acid, reference compound], for which the “seeds forming somatic embryos” value in experiment [1] (1 μM 2,4-D alone, Col0, circa 30 seeds in 30 ml medium) is reported as “approximately 18%”.

Take `Cc1ccccc1N(C)S(=O)(=O)c1ccc(Cl)cc1` [C#3, 4-chloro-N-methyl-N-(2-methylphenyl)benzenesulfonamide]: in experiment [1] (setting [6]), the “level of SE, percentage of seedlings with somatic embryos, compared to control of 1 μM 2,4-D alone” value is listed as “significantly increases the level of SE” and the “potency as inducer of SE” value is “particularly potent inducers”. The “seedlings with somatic embryo development” value in experiment [1] (10 to 50 μM C#3, 1 μM 2,4-D, control circa 20%) is reported as “approximately 70%”. Besides, in experiment [1] (ecotypes other than Col0), the “number of somatic embryo-producing seedlings in different Arabidopsis ecotypes” value was “enhanced the number of somatic embryo-producing seedlings”. In experiment [1] (in presence of 2,4-D), the “rank of percentage of seedlings with somatic embryos among screened compounds” value is listed as “induced the highest percentage of seedlings with somatic embryos”. In addition, in experiment [1] (none to 50 μM, fixed 1 μM 2,4-D, FIG. 5), the “level of SE with increasing concentrations of compound” value was “increases the level of SE”. Moreover, in experiment [2] (embryo marker expression), the “number of seedlings displaying GFP fluorescence versus control” value is “higher”. Further, the “first detection of ENOD4L::GFP and LEC1:GFP marker expression” value in experiment [2] (region of the shoot meristem) is “starting from day four of culture”. In experiment [2] (sixth day of culture), the “callus formation in root/hypocotyl region” value was “formed a large, connected mass of vascular-derived callus”; the “cell loosening and detachment in hypocotyl and root” value was “to a lesser extent than the control”. Moreover, in experiment [2] (sixth day of culture, control circa 10%), the “seedlings with callus on the tips of the cotyledons” value is “up to 70%”. Moreover, in experiment [2] (tenth day of culture), the “number of embryogenic seedlings compared to control cultures” value was “much higher”. The “time of addition giving best response” value in experiment [3] (25 μM C#3, 1 μM 2,4-D, scored after two weeks, FIG. 6) was “within the first two days of culture”. In addition, the “enhancement of somatic embryogenesis on late addition” value in experiment [3] (25 μM C#3 added after four days of culture) is listed as “reached control levels”. Further, the “somatic embryo formation in the absence of 2,4-D” value in experiment [4] (25 μM C#3, no 2,4-D, FIG. 7A) is reported as “not able to induce somatic embryo formation”. For the same compound, the “somatic embryo formation at all tested 2,4-D concentrations” value in experiment [4] (25 μM C#3, up to 2 μM 2,4-D) was “did enhance somatic embryo formation”. In addition, the “effect on NAA induced somatic embryogenesis” value in experiment [5] (25 μM C#3 with 10 μM NAA) is given as “enhanced”.

For `O=C(O)Cc1cccc2ccccc12` [NAA, naphthalene-1-acetic acid, reference compound], the “frequency of somatic embryogenesis with NAA alone” value in experiment [5] (10 μM NAA, FIG. 8) was “induced a low frequency of somatic embryogenesis”.
